Entries after “also recorded” stand apart in the source; their conditions may differ. Like-named read-outs stand apart in the source and are kept apart here.
What was measured:
[1] = system: C6 cells; experiment: Cell viability / gliotoxicity in C6; format: cell-based; details: for C6 death relative to astrocytes: cytoplasmic exosaminidase; for inhibition of XTT conversion compared with astrocytes: C6, 24 hours of treatment
Description: (§1) Cells were treated for 48 hours accordingly to axis labels. At the end of the incubation time cells were prepared for the assay according to the manufacturer instructions. Luminescence values were then converted to % of survival.
(§2) Cells were treated for 48 h with the indicated concentrations of the agents. Astrocytes death was limited to 30% or lower. Suprisingly, C6 death was 3 folds higher than in astrocytes at 24 h and increased at 5 folds at 48 h. Data in U78-MG are similar to the C6 data although the effect was slightly lower but always at least 2 to 4 folds the effect seen in astrocytes.
(§3) In order to verify how the hypersensitivity of this signaling pathway in glioma cells affects the survival of the cells, viability assessments were performed using at least three unrelated biochemical tests. Initially, a commercially available kit (Cell Titer Glow) was used in the high throughput screening center for cytotoxicity screening. This test is amenable to high throughput screening techniques and, therefore, can be used for follow up of selected compounds in high or medium throughput settings. […] Since, THAP inhibits SERCA, an ATPase, and it can affect ATP levels directly the effect of THAP and TUN on these 3 cells types was also assessed using a commercially available kit that assesses metatetrazolium salts conversion (XTT). XTT assesses cell viability by probing mitochondrial integrity. […] Finally, viability of U87-MG was also assessed using a system measuring the activity of a house keeping cytosolic enzyme involved in glucose metabolism. Also using this detection system it was evident that glioma cells both C6 and U87-MG were greatly affected by induction of ERSR (FIG. 13). It is well known that prolonged ERSR leads to apoptosis, even in the presence of elevated GRP78 expression if that is coupled to significant protein unfolding. In rat cells this process is actuated via caspase 12 and ultimately via caspase 3 activation. Experiments were conducted in order to determine if the observed effect on cell viability was also paralleled by caspase 12 activation, and if there were differences, as indicated by preliminary viability data, between normal and glioma cells.

[2] = system: GRP78 promoter; experiment: GRP78-luc reporter assay in stably transfected U87-MG clone A5; format: cell-based, human; details: for GRP78 promoter driven luciferase (GRP78-luc) expression: result in words
Description: The promoter region contains the sequence of the GRP78 promoter from −139 to +7. In this part of the promoter there are three ER stress responsive elements and the TATA box to which is linked in frame the firefly luciferase sequence.
Compounds were plated in half area 96 well plates at the final concentration of 2 μM in 5 μl of media. Cells were added in 45 μl afterwards at the density of 5000/well. Plates were read after 16 h in an Envision high efficiency plate reader. Results are represented as a plate layout in which different shadings indicate the different rows and the number indicate the different lines. As a standard negative and positive controls were located in the outer columns.
A construct coding a large part of the human GRP78 promoter, attached to the reporter gene firefly luciferase was used (see FIG. 16 for a schematic) (Yoshida et al., 1998).
The promoter region contains the sequence of the GRP78 promoter from −139 to +7. In this part of the promoter there are three ER stress responsive elements and the TATA box to which is linked in frame the firefly luciferase sequence (FIG. 16)(Yoshida et al., 1998). The construct, which was cloned in an expression vector, was transfected into E. Coli, amplified, purified and checked it by enzymatic digestion. Thereafter, C6 and U87-MG were transiently transfected with the plasmid. After 24 hours the cells were challenged with THAP and TUN for 24 hours. Although, in transient transfection only a small part of the cell population expresses the transduced gene, a significant induction by THAP and TUN was detected over 24 hours. Armed with these encouraging data human glioma cells U87-MG were transfected with both the above described construct and a construct carrying resistance to blasticidin. The sensitivity of these cells to the antibiotic has previously been assessed. 24 hours after the transfection the antibiotic at its 75% inhibitory concentration was added. The cells were given time to proliferate. Two pools called P2 and P5 were selected and luciferase expression was assessed. […] Clones from these two pools were isolated. Luciferase expression in the clones was characterized and a clone called A5, in which baseline expression of the construct was reasonably low and induction with two positive controls was large and consistent, was selected. This clone, several back up clones, and the pools were amplified and frozen in sufficient amounts to guarantee continuity in case needed. Next, the effect of the incubation time on luciferase induction was assessed. Since this assay can be affected by false negative due to toxicity of hit compounds, the incubation times were kept as short as possible. Therefore, several incubation times were tested, including 8, 16 and 24 h. The goal was not to incubate longer than 24 hours because toxicity starts to develop at that time point. […] At this time point the induction is about 6-7 fold. Previously, using a different assay, a half a million compound library was screened very easily using 2.5 thousands cells per well in 1536 plates. […] With this cell number the dynamic range is large and the fold of induction of 6-7 is maintained.
It is common practice in the field of high throughput screening to assess the so called z number of the assay. This statistical parameter indicates the suitability of a given assay for high throughput screening. The z-value in a word describes the likelihood of a single point hit not to be false positive. The z value is a number lower than or equal to one. Values above 0.5 indicate a robust assay. Values below 0.5 but above 0 indicate an assay that probably needs to be run in duplicate. Negative values indicate assays whose predictability is very low. Z values are usually determined in a high density format plate usually a 96 well plate in manual conditions or a 384-1536 plate format in automated liquid handling environment. Z value determination has been performed using half area 96 well plates in manual mode. […]

[3] = system: GRP78; experiment: GRP78 protein expression in U87-MG; format: cell-based, human; details: brief exposure (8 h), FIG. 11
Description: Cells were treated as specified in the graph labeling. It is evident that glioma cells have enhanced GRP78 expression than astrocytes regardless of the challenging agent. N.T.=untreated; D=DMSO; T=TUN; Th=THAP.
Also it has been speculated that the increased higher constitutive expression in glioma cells determines their resilience to the hostile growth environment, to pharmacological treatment and to radiotherapy. However, these studies were performed comparing human astrocytes from repositories to several human malignant cell lines both commercially available or from patients. […] Therefore, in light of the preliminary observations, experiments were conducted in order to further investigate the phenomenon with the aim to better understand it. Experiments were performed using primary rat astrocytes and their glioma counterpart, the C6 cells; also, human glioma cells, such as U87-MG, were used. The latter have been widely used in assessing human glioma properties. Unstimulated expression levels of GRP78 were compared in these cells. In FIG. 11 it is possible to view that unstimulated GRP78 expression in these three cell types is very low.

[4] = system: U87-MG cells; experiment: Cell viability / gliotoxicity in U87-MG; format: cell-based
Description: as §1, §2
as §3, with “Experiments were conducted in order to determine if the observed effect on cell viability was also paralleled by caspase 12 activation, and if there were differences, as indicated by preliminary viability data, between normal and glioma cells.” left out

[5] = same concentration range as GRP78-luc increase

| Compound | cytotoxicity compared with astrocytes (Cell Titer Glow, ATP content) [1] | C6 death relative to astrocytes ([1]; 24 h) [folds] | C6 death relative to astrocytes ([1]; 48 h) [folds] | inhibition of XTT conversion compared with astrocytes [1] | GRP78 promoter driven luciferase (GRP78-luc) expression [2] | GRP78 expression in U87-MG after challenge [3] | cytotoxicity compared with astrocytes (Cell Titer Glow, ATP content) [4] | gliotoxicity in C6 [1, 5] | concentration up to which GRP78-luc expression increased, after which the toxic effect was preponderant [2] | hit in Prestwick library screening (value above average of negative controls + 3 SD) ([2]; 2 μM, 5000 cells/well, read after 16 h) | gliotoxicity in U87-MG [4, 5] | cytotoxicity compared with astrocytes (Cell Titer Glow, ATP content) ([1]; C6, 48 hours) | cytotoxicity compared with astrocytes (Cell Titer Glow, ATP content) ([4]; U87-MG, 48 hours) |
| --- | --- | --- | --- | --- | --- | --- | --- | --- | --- | --- | --- | --- | --- |
| C/C=C(/C)C(=O)O[C@H]1C(C)=C2[C@H]([C@@H]1OC(=O)CCCCCCC)[C@@](C)(OC(C)=O)C[C@H](OC(=O)CCC)[C@@]1(O)[C@H]2OC(=O)[C@@]1(C)O [THAP, thapsigargin] | significantly higher cytotoxicity | 3 | 5 | significantly higher inhibition of XTT conversion than astrocytes | increase of luciferase expression; also recorded: concentration dependent increase | enhanced significantly | significantly higher cytotoxicity |  |  |  |  |  |  |
| CCN(CC)CCCC(C)Nc1c2ccc(Cl)cc2nc2ccc(OC)cc12 (stereo not drawn) [quinacrine] |  |  |  |  |  |  |  | killed very effectively | up to 10 μM | potentially attractive lead compounds | killed very effectively |  |  |
| tunicamycin |  | 3 | 5 | significantly higher inhibition of XTT conversion than astrocytes | increase of luciferase expression; also recorded: concentration dependent increase | enhanced significantly |  |  |  |  |  | significantly higher cytotoxicity | significantly higher cytotoxicity |
